Test results from patent publication US20090253709A1 (NATIONAL DEFENSE MEDICAL CENTER, priority 2008, published 2009).

Tests used:
Format in all cases: cell-based
HOP-92 = assay: In vitro cytotoxicity, Development Therapeutics Program; details: HOP-92, non-small cell lung cancer; 1.0×10^−5 M
From the text: (§1) From the in vitro experiments of the Development Therapeutics Program of the Cancer Research Institute, the United States, it was known that the synthetic heterocyclic anthraquinone derivatives of the present invention have different inhibition levels to the different cancer cell lines under the concentration of 1.0×10^−5 M. Please refer to Table 2, which is the result of in vitro cytotoxicity of 2,7-disubstituted anthraquinone derivatives of the present invention.

HCT-116 = assay: as above; details: HCT-116, colon cancer; 1.0×10^−5 M
From the text: as §1

OVCAR-5 = assay: as above; details: OVCAR-5, ovarian cancer; 1.0×10^−5 M
From the text: as §1

786-0 = assay: as above; details: 786-0, renal cancer; 1.0×10^−5 M
From the text: as §1

NCI/ADR-RES = assay: as above; details: breast cancer, 1.0×10^−5 M
From the text: as §1

HOP-62 = assay: as above; details: HOP-62, non-small cell lung cancer; 1.0×10^−5 M
From the text: as §1

OVCAR-4 = assay: as above; details: OVCAR-4, ovarian cancer; 1.0×10^−5 M
From the text: as §1

MOLT-4 = assay: as above; details: MOLT-4, leukemia; 1.0×10^−5 M
From the text: as §1

K-562 = assay: as above; details: K-562, leukemia; 1.0×10^−5 M
From the text: as §1

SW-620 = assay: as above; details: SW-620, colon cancer; 1.0×10^−5 M
From the text: as §1

UACC-62 = assay: as above; details: UACC-62, melanoma; 1.0×10^−5 M
From the text: as §1

SK-MEL-2 = assay: as above; details: SK-MEL-2, melanoma; 1.0×10^−5 M
From the text: as §1

U251 = assay: as above; details: U251, CNS cancer; 1.0×10^−5 M
From the text: as §1

MDA-MB-435 = assay: as above; details: MDA-MB-435, breast cancer; 1.0×10^−5 M
From the text: as §1

OVCAR-3 = assay: as above; details: OVCAR-3, ovarian cancer; 1.0×10^−5 M
From the text: as §1

NCl-H226 = assay: as above; details: NCl-H226, non-small cell lung cancer; 1.0×10^−5 M
From the text: as §1

CCRF-CEM = assay: as above; details: leukemia, 1.0×10^−5 M
From the text: as §1

[1] = tested on: different cancer cell lines; assay: In vitro cytotoxicity, Development Therapeutics Program, summary over all cell lines; details: 1.0×10^−5 M
From the text: as §1

Structure (SMILES) | Cellular growth rate (%) (HOP-92) | Cellular growth rate (%) (HCT-116) | Cellular growth rate (%) (OVCAR-5) | Cellular growth rate (%) (786-0) | Cellular growth rate (%) (NCI/ADR-RES) | Cellular growth rate (%) (HOP-62) | Cellular growth rate (%) (OVCAR-4) | Cellular growth rate (%) (MOLT-4) | Cellular growth rate (%) (K-562) | Cellular growth rate (%) (SW-620) | Cellular growth rate (%) (UACC-62) | Cellular growth rate (%) (SK-MEL-2) | Cellular growth rate (%) (U251) | Cellular growth rate (%) (MDA-MB-435) | Cellular growth rate (%) (OVCAR-3) | Cellular growth rate (%) (NCl-H226) | Cellular growth rate (%) (CCRF-CEM) | Cellular growth rate (%), Mean [1]
O=C(CCN1CCCC1)Nc1ccc2c(c1)C(=O)c1cc(NC(=O)CCN3CCCC3)ccc1C2=O [Compound 18, 2,7-Bis[3-(pyrrolidino)propionamido]anthraquinone] | 7.04% | 10.51% | 18.81% | 40.51% | 80.59% | 18.79% | 49.82% | 22.97% | 6.40% | 20.01% | 42.72% | −45.21% | 18.16% | 68.84% | 36.88% | 41.10% | 3.74% | 30.97%
CC(=O)Nc1ccc2c(c1)C(=O)c1cc(NC(C)=O)ccc1C2=O [Compound 26, 2,7-Bis(acetamido)anthraquinone] | 101.26% | 101.91% | 102.27% | 97.72% | 114.26% | 110.60% | 103.60% | 96.96% | 98.54% | 103.21% | 101.24% | 30.15% | 95.14% | 109.48% | 111.06% | 104.51% | 99.77% | 99.06%
CN(C)CC(=O)Nc1ccc2c(c1)C(=O)c1cc(NC(=O)CN(C)C)ccc1C2=O [Compound 8, 2,7-Bis[2-(dimethylamino)acetamido]anthraquinone] | 56.14% | 19.07% | 73.15% | 68.60% | 47.84% | 28.97% | 45.70% | 29.12% | 34.91% | 23.36% | 22.31% | −30.35% | 16.26% | 68.36% | 43.63% | 89.14% | −13.21% | 28.70%
CCN(CC)CCC(=O)Nc1ccc2c(c1)C(=O)c1cc(NC(=O)CCN(CC)CC)ccc1C2=O [Compound 16, 2,7-Bis[3-(diethylamino)propionamido]anthraquinone] | 9.70% | −32.45% | 33.63% | 24.72% | 59.52% | 11.65% | 24.92% | 5.42% | 8.10% | 16.93% | 44.45% | −60.38% | 21.65% | 71.07% | 10.39% | 49.89% | −6.02% | 16.33%
O=C1c2ccc(NC(=O)C3CC3)cc2C(=O)c2cc(NC(=O)C3CC3)ccc21 [Compound 32, 2,7-Bis(cyclopropanecarbonamido)anthraquinone] | 86.18% | 87.14% | 112.01% | 94.92% | 90.83% | 91.64% | 97.54% | 94.29% | 91.60% | 104.75% | 81.00% | 16.85% | 72.62% | 97.35% | 103.35% | 100.60% | 90.67% | 91.54%
